The text below walks through data of patent publication US20200188441A1, “METHODS AND COMPOSITIONS FOR REDUCING CORNEAL ENDOTHELIAL CELL LOSS” (The Schepens Eye Research Institute, Inc., priority 2017, published 2020).

In test [1] the test system is corneal endothelial cells. Description: IFNγ- and TNFα-mediated corneal endothelial cell apoptosis in corneal cups ex vivo (TUNEL). The format is cell-based, C57BL/6. The note with it: VIP 10^−6 M; 18 hours of incubation. The procedure:
FIG. 10A is a set of micrographs and FIG. 10B is a graph showing that VIP suppresses IFNγ- and TNFα-mediated corneal endothelial cell apoptosis. FIG. 10A: Representative confocal micrographs showing nave C57BL/6 corneal cups incubated with either IFNγ or TNFα with or without VIP (10^−12, 10^−9, 10^−6 M). After 18 hours of incubation, corneas were stained for zonula occluden-1 (ZO-1, green) and terminal deoxynucleotidyl transferase-mediated dUTP nick-end labeling assay (TUNEL, red) to visualize endothelial cell-to-cell junctions and apoptotic cells, respectively. The scale bars are equal to 100 μm (magnification ×40). FIG. 10B: Bar diagram showing the percentages of apoptotic (TUNEL-positive) corneal endothelial cells incubated ex vivo with either IFNγ or TNFα with different doses of VIP. […] Data are presented as mean±SEM. Each group consists of n=5 corneas and data from one out of two independent experiments is shown.

For test [2], the system named is human corneal endothelial cells. The experiment in a line: Corneal endothelial wound healing in vitro. The format is cell-based. The settings on record: VIP 10^−9, 10^−7 and 10^−6 M; 12 and 24 hours after incubation; vs control. An excerpt: FIG. 9 is a graph showing that VIP treatment of human corneal endothelial cells accelerates corneal endothelial wound healing in vitro in a dose-dependent manner Percentage of healed endothelial area compared to baseline in VIP-treated groups and in control. […] Error bars indicate mean±SEM. Each group consists of n=9, and data from one out of two independent experiments is shown.

For test [3], the system named is corneal graft. Description: High-risk allogeneic corneal transplantation. The format is in vivo, mice. An excerpt:
FIGS. 12A-D are graphs and images showing the effect of VIP treatment on high-risk corneal transplant survival. Animals underwent high-risk allogeneic corneal transplantation and received treatment with VIP at 1, 3, 5, 7 and 9 days after transplantation. […] Each group consists of n=14. FIG. 12C: Representative confocal micrographs of central area of transplanted corneas in VIP-treated mice and in controls at 1, 2 and 8 weeks post-transplantation. Corneal endothelial cell-to-cell junction were stained and visualized with zonula occluden-1 (ZO-1, green). The scale bars are equal to 100 μm (magnification ×40). […] Horizontal line represents the CEnC density of nave age-matched C57BL/6 corneas. Each group consists of n=5 corneas. All data are presented as mean±SEM, and data from one out of two independent experiments is shown.

For test [4], the system named is corneal graft. The experiment in a line: Murine model of syngeneic corneal transplantation with endothelial injury. The format is in vivo. An excerpt: FIG. 11A: Representative slit-lamp images showing corneas at week 2-6 post-transplantation (magnification ×25). […] FIG. 11C: Representative confocal micrographs of central area of transplanted corneas isolated from VIP-treated mice and the control groups at week 2, 4 and 6 after transplantation. To visualize corneal endothelial cell-to-cell junctions, corneas were stained with zonula occluden-1 (ZO-1, green). The scale bars are equal to 100 μm (magnification ×40). FIG. 11D: Bar diagram showing central endothelial cell density in VIP-treated corneas and controls at 2, 4 and 6 weeks post-transplantation. Data are presented as mean±SEM. Each group consists of n=6 corneas, and data from one out of two independent experiments is shown.

No end group written: not given here.

In the case of “VIP: vasoactive intestinal polypeptide, a neuropeptide; exemplary human sequence SEQ ID NO: 5 (HSDAVFTDNYTRLRKQMAVKKYLNSILN; ends and bridges not checked; UniProt P01282 125-152, looked up)”, in test [1], the “IFNγ-mediated corneal endothelial cell apoptosis (TUNEL-positive cells)” value is “significantly suppresses” and the “TNFα-mediated corneal endothelial cell apoptosis (TUNEL-positive cells)” value is given as “significantly suppresses”. For the same substance, the “wound healing (percentage of healed endothelial area compared to baseline)” value in test [2] is recorded as “significantly enhanced wound healing”. Besides, the graft opacity scores result in test [3] (4 to 8 weeks post-transplantation, VIP at 1, 3, 5, 7 and 9 days after transplantation) was “significantly decreased”. Also, in test [3] (8 weeks post-transplantation, vs control), the “central CEnC density” value is on record as “significantly higher”. Besides, the “hazard ratio (graft survival, VIP-treated vs controls)” value in test [3] (8 weeks, 95% CI 0.04-0.26, Log rank test) was found to be 0.10. Moreover, the graft survival in test [3] (weekly examination for 8 weeks, controls 0%) turned out to be 85%. The “corneal endothelial wound healing” value in test [4] (syngeneic transplantation with endothelial injury) is given as “enhances corneal endothelial wound healing”. Besides, the graft opacity scores entry in test [4] (week 2 to 6 post-transplantation, vs control) was “significantly decreased”.
